Experimental data as given in paper PMC9851200, “Multiparameter phenotypic screening for endogenous TFEB and TFE3 translocation identifies novel chemical series modulating lysosome function” (Autophagy, 2022).
Where two headings read alike, the source gives them in different places.

Columns and labels:
endogenous TFEB = test: TFEB nuclear translocation, immunocytochemistry high-content imaging; assay type: cell-based
SH-SY5Y cells [1] = test system: SH-SY5Y cells; also: reference of the scale not given here
endogenous TFE3 = test: TFE3 nuclear translocation, immunocytochemistry high-content imaging; assay type: cell-based
SH-SY5Y cells [2] = test: AK (adenylate kinase) release ToxiLight cytotoxicity assay; also: reference of the scale not given here
SH-SY5Y cells [3] = test: Nuclear count from microscopy images (cellular growth and toxicity); also: reference of the scale not given here
[4] = PKIS2 primary screening, DQ Red BSA intensity
[5] = PKIS2 primary screening, DQ Red BSA spot count

SMILES | TFEB % (endogenous TFEB; PKIS2 primary screening) [%] | DQ Intensity (SH-SY5Y cells [1]; [4]) | DQ Spot (SH-SY5Y cells [1]; [5]) | TFE3 % (endogenous TFE3; PKIS2 primary screening) [%] | AK (SH-SY5Y cells [2]; PKIS2 primary screening) | Nuclear Count (SH-SY5Y cells [3]; PKIS2 primary screening) | DQ Intensity (SH-SY5Y cells [1]; PKIS2 primary screening) | DQ Spot (SH-SY5Y cells [1]; PKIS2 primary screening) | TFEB % (endogenous TFEB; PKIS2 primary screen) [%] | DQ Intensity (SH-SY5Y cells [1]; PKIS2 primary screen, DQ Red BSA intensity) | DQ Spot (SH-SY5Y cells [1]; PKIS2 primary screen, DQ Red BSA spot count) | TFE3 % (endogenous TFE3; PKIS2 primary screen) [%] | AK (SH-SY5Y cells [2]; PKIS2 primary screen) | Nuclear Count (SH-SY5Y cells [3]; PKIS2 primary screen)
Nc1ncnc2scc(-c3ccc(NC(=O)Cc4cc(F)ccc4F)cc3)c12.O=C(O)C(F)(F)F [UNC10225107A] | 8.26 | 106.01 | 96.58 | 9.54 | 124.57 | 68.49 |  |  |  |  |  |  |  | 
O=c1cc(N2CCOCC2)nc2n(Cc3cccc(C(F)(F)F)c3)ccn12 [UNC10225024A] | 3.55 |  |  | 12.11 | 84.29 | 98.56 | 73.22 | 100.00 |  |  |  |  |  | 
CN(C)CCN(C)C(=O)c1cc(-c2ccncc2)c(-c2ccc(Cl)c(O)c2)o1.Cl.Cl [UNC10225256A] | 10.97 |  |  | 22.07 | 88.55 | 130.04 | 171.47 | 68.22 |  |  |  |  |  | 
CCn1c(-c2nonc2N)nc2c(C#CC(C)(C)O)nc(OCCN)cc21.Cl.Cl [UNC10225460A] | 9.06 |  |  | 15.40 | 78.09 | 55.94 | 74.51 | 103.98 |  |  |  |  |  | 
Cc1cc(N2CCC(NS(=O)(=O)c3ccc(F)cc3)CC2)nc(Nc2cccc(C#N)c2)n1 [GSK1653537] | 10.28 | 104.60 | 98.84 | 18.21 | 183.29 | 84.44 |  |  |  |  |  |  |  | 
CN(c1ccc2c(c1)nc(NCc1ccccc1)n2C)c1ccnc(Nc2ccc(CS(C)(=O)=O)cc2)n1 [GW811603] | 7.98 | 108.65 | 109.65 | 9.93 | 192.03 | 118.98 |  |  |  |  |  |  |  | 
COc1ccc(Nc2nccc(N3CCC(NS(=O)(=O)c4ccc(NC(C)=O)cc4)C3)n2)cc1 (stereo not drawn) [GSK1379729] | 5.22 | 76.81 | 100.23 | 16.51 | 69.35 | 90.61 |  |  |  |  |  |  |  | 
COC(=O)c1cccc(NC(=O)NC2CCN(c3ccnc(NCc4ccc(F)cc4)n3)CC2)c1 [GSK1379860] | 6.34 | 146.32 | 93.58 | 10.41 | 178.25 | 118.43 |  |  |  |  |  |  |  | 
CCOC(=O)N1CCC(n2cnc(-c3ccc(F)cc3)c2-c2ccnc(N)n2)CC1 [UNC10225132A] | 10.30 |  |  | 8.29 | 115.58 | 129.88 | 90.15 | 96.37 |  |  |  |  |  | 
c1ccc(-c2cc(-c3c[nH]nc3-c3ccccn3)ccn2)cc1 [UNC10225169A] | 2.50 | 83.52 | 97.79 | 6.57 | 72.24 | 139.75 |  |  |  |  |  |  |  | 
COc1cc2ncn(-c3cc(OCc4sccc4Cl)c(C(N)=O)s3)c2cc1OC [UNC10225153A] | 9.72 |  |  | 30.18 | 134.16 | 49.58 | 186.81 | 134.42 |  |  |  |  |  | 
N#Cc1cccc(C(=O)NC2CCN(c3ccnc(Nc4ccc(F)cc4)n3)C2)c1 (stereo not drawn) [GSK1379708] | 6.02 | 97.27 | 112.33 | 11.35 | 99.36 | 107.86 |  |  |  |  |  |  |  | 
CN(c1ccc2c(c1)nc(NCc1ccc(F)cc1)n2C)c1ccnc(Nc2ccc(CS(C)(=O)=O)cc2)n1 [GW813244] | 4.30 | 93.66 | 106.18 | 13.77 | 87.46 | 104.49 |  |  |  |  |  |  |  | 
O=C(NCCNc1ccnc(Nc2ccc(F)cc2)n1)Nc1ccc2c(c1)OCO2 [GSK1379882] | 4.46 | 52.40 | 79.77 | 17.40 | 105.11 | 67.71 |  |  |  |  |  |  |  | 
COc1cc2ncn(-c3cc(OCc4ccncc4Br)c(C(N)=O)s3)c2cc1OC [UNC10225386A] | 6.47 |  |  | 3.25 | 64.35 | 97.54 | 93.85 | 100.07 |  |  |  |  |  | 
COc1ccc(Nc2nccc(NCCNC(=O)Nc3ccccc3F)n2)cc1 [GSK1379901] | 13.61 | 112.97 | 125.52 | 12.56 | 100.88 | 49.37 |  |  |  |  |  |  |  | 
O=C(Nc1cccc(-c2nn3ccccc3c2-c2ccnc(Nc3cccc(C(F)(F)F)c3)n2)c1)c1c(F)cccc1F [UNC10225325A] | 6.17 |  |  | 14.69 | 71.36 | 61.45 | 102.24 | 131.00 |  |  |  |  |  | 

SMILES | TFEB % (endogenous TFEB; PKIS2 primary screening) [%] | DQ Intensity (SH-SY5Y cells [1]; [4]) | DQ Spot (SH-SY5Y cells [1]; [5]) | TFE3 % (endogenous TFE3; PKIS2 primary screening) [%] | AK (SH-SY5Y cells [2]; PKIS2 primary screening) | Nuclear Count (SH-SY5Y cells [3]; PKIS2 primary screening) | DQ Intensity (SH-SY5Y cells [1]; PKIS2 primary screening) | DQ Spot (SH-SY5Y cells [1]; PKIS2 primary screening) | TFEB % (endogenous TFEB; PKIS2 primary screen) [%] | DQ Intensity (SH-SY5Y cells [1]; PKIS2 primary screen, DQ Red BSA intensity) | DQ Spot (SH-SY5Y cells [1]; PKIS2 primary screen, DQ Red BSA spot count) | TFE3 % (endogenous TFE3; PKIS2 primary screen) [%] | AK (SH-SY5Y cells [2]; PKIS2 primary screen) | Nuclear Count (SH-SY5Y cells [3]; PKIS2 primary screen)
O=c1[nH]cc(-c2ccc(O)cc2)c2sc(-c3ccncc3)cc12 [UNC10225166A] |  |  |  |  |  |  |  |  | 3.69 | 80.95 | 75.27 | 6.08 | 95.26 | 145.07
COc1cc(Nc2nccc(N3CCC(NS(=O)(=O)c4ccc(NC(C)=O)cc4)CC3)n2)cc(OC)c1OC [GSK1379825] | 12.82 | 96.24 | 89.82 | 12.08 | 75.82 | 107.84 |  |  |  |  |  |  |  | 
Nc1nc(Nc2ccccc2)cc(-c2ccc3c(N)n[nH]c3c2)n1 [GSK2225749] | 8.82 | 84.54 | 97.02 | 13.67 | 135.05 | 92.29 |  |  |  |  |  |  |  | 
Cc1ccc(NC(=O)c2ccc(Cl)cc2)cc1-c1ccc(C(=O)Nc2ccncc2)cc1 [UNC10224985A] | 7.14 |  |  | 13.44 | 72.98 | 119.79 | 77.83 | 81.57 |  |  |  |  |  | 
Cl.Fc1ccccc1COc1ccc(Nc2ncnc3ccc(-c4nnc(C(F)(F)F)o4)cc23)cc1Cl [UNC10225422A] | 3.54 | 100.75 | 98.62 | 5.47 | 104.09 | 121.67 |  |  |  |  |  |  |  | 
COc1cc(Nc2nccc(N3CCC(NC(=O)Nc4cccc(C(C)=O)c4)C3)n2)cc(OC)c1OC (stereo not drawn) [GSK1379753] | 2.90 | 96.48 | 93.76 | 10.72 | 112.38 | 116.36 |  |  |  |  |  |  |  | 
Cc1ccccc1-c1cc(-c2c[nH]nc2-c2ccccn2)ccn1 [UNC10225243A] | 4.36 | 62.92 | 82.05 | 14.74 | 94.72 | 90.96 |  |  |  |  |  |  |  | 
Cl.c1ccc(Cn2ncc3cc(Nc4ncnc5ccccc45)ccc32)cc1 [UNC10225085A] | 4.60 | 91.33 | 107.62 | 11.00 | 124.83 | 82.39 |  |  |  |  |  |  |  | 
O=C(Nc1ccccc1F)NC1CCN(c2ccnc(Nc3ccc(F)cc3)n2)C1 (stereo not drawn) [GSK1379722] | 14.40 | 129.34 | 121.71 | 10.71 | 94.79 | 114.62 |  |  |  |  |  |  |  | 
NC(=O)c1sc(-n2cnc3ccccc32)cc1OCc1ccccc1F [UNC10225260A] | 10.02 |  |  | 15.10 | 77.77 | 92.38 | 138.58 | 126.89 |  |  |  |  |  | 
Cc1ccc(C)c(NC(=O)NC2CCN(c3ccnc(Nc4ccc(F)cc4)n3)C2)c1 (stereo not drawn) [GSK1379720] | 6.06 | 115.10 | 109.75 | 10.49 | 98.80 | 92.38 |  |  |  |  |  |  |  | 
COc1ccc(COc2cc(-n3cnc4ccccc43)sc2C(N)=O)cc1 [UNC10225127A] | 4.73 |  |  | 11.50 | 69.30 | 109.00 | 119.47 | 107.75 |  |  |  |  |  | 
NC(=O)c1cccc(Nc2nccc(Nc3ccc(Oc4cccc(Cl)c4)c(Cl)c3)n2)c1 [GW659008] | 11.92 | 100.37 | 103.30 | 11.36 | 92.69 | 86.88 |  |  |  |  |  |  |  | 
CCS(=O)(=O)c1ccc(OC)c(Nc2ncc(-c3ccc(F)cc3)o2)c1 [GW591947] | 4.85 | 82.17 | 99.73 | 8.80 | 64.95 | 114.66 |  |  |  |  |  |  |  | 
COc1ccc(Nc2nccc(N3CCC(NC(=O)Nc4cccc(OC)c4)C3)n2)cc1 (stereo not drawn) [GSK1379742] | 8.93 | 119.16 | 99.38 | 16.87 | 126.78 | 103.65 |  |  |  |  |  |  |  | 
Cc1ccc(F)c(C(=O)Nc2cccc(-c3nn4ccccc4c3-c3ccnc(Nc4cccc(F)c4)n3)c2)c1F [UNC10225076A] | 2.83 |  |  | 6.05 | 111.27 | 118.77 | 103.33 | 125.97 |  |  |  |  |  | 
CCOc1nccc(-c2c(-c3ccc(F)cc3)ncn2C2CCNCC2)n1 [UNC10225194A] | 5.88 |  |  | 13.41 | 122.01 | 127.90 | 81.72 | 85.28 |  |  |  |  |  | 
